According to patent publication US11186583B2, “5-alkylthio-7-[(4-arylbenzyl)amino]-1(2)H-pyrazolo[4,3-d]pyrimidines for treatment of lymphoma” (UNIVERZITA PALACKEHO V OLOMOUCI, priority 2018, dated 2021):

Assays:
[1] = biological target: T1, CDK2/Cyclin E (Homo sapiens, UniProt P24941); assay: CDK2/Cyclin E kinase inhibition, [γ-33P]ATP, histone H1; assay type: biochemical; conditions: Table 4; read-out: CDK2/E inhibition IC50
T1 construct: made in house; host or cells: Sf9 insect cells (baculovirus)
Description: CDK2/Cyclin E and CDK1/Cyclin B kinases were produced in Sf9 insect cells via baculoviral infection and purified on a Ni-NTA column (Qiagen). CDK4/Cyclin D1, CDK5/p35NCK, CDK7/Cyclin H/MAT1 and CDK9/Cyclin T1 were purchased from ProQinase GmbH. […] The reactions were stopped by adding 5 mL of 3% aq. H3PO4. Aliquots were spotted onto P-81 phosphocellulose (Whatman), washed 3 times with 0.5% aq. H3PO4 and finally air-dried. Kinase inhibition was quantified using a FLA-7000 digital image analyzer (Fujifilm). The concentration of the test compounds required to decrease the CDK activity by 50% was determined from dose response curves and designated as IC50.

[2] = test system: MINO (mantle cell lymphoma); assay: MTT cytotoxicity assay, MINO lymphoma cell line; assay type: cell-based; conditions: Homo sapiens, 72 h, MINO cells, three days, read-out: Lymphoma cell lines GI50, MINO
Excerpt: (§1) Cytotoxicity of the compounds is the major property determining their anti-lymphoma efficacy in vitro. One of the parameters used, as the basis for cytotoxicity assays, is the metabolic activity of viable cells. For example 2, a microtiter assay, which uses (3-(4,5-dimethylthiazol-2-yl)-2,5-diphenyltetrazolium bromide (MTT), is widely used to quantitate cell proliferation and cytotoxicity. This assay is widely used in drug screening programs and in chemosensitivity testing. Because only metabolically active living cells reduce MTT to correspond purple formazan dye, these assays detect viable cells exclusively. The quantity of reduced MTT corresponds to the number of vital cells in the culture.
(§2) The compounds were assayed using the following lymphoma cell lines: HT (diffuse large B-cell lymphoma, subtype—germinal center B-cell), OCI-LY2 (diffuse large B-cell lymphoma, subtype—germinal center B-cell), MINO (mantle cell lymphoma). All cell lines were grown in RPMI medium supplemented with fetal bovine serum and glutamine and maintained at 37° C. in a humidified atmosphere with 5% CO2. For cytotoxicity assays, 5000-10000 cells were seeded into each well of 96 well plate, allowed to stabilize for at least 8 h and then tested compounds were added at various concentrations ranging from 100 to 0.01 μM in triplicates. After three days, MTT solution (5 mg/ml; Sigma, St. Louis, USA) was added to cells and medium was replaced with DMSO after five hours. The absorbance was measured at 620 nm by employing a microplate reader. MTT assays were repeated 3 times for each drug application and untreated cells were used as reference. The GI50 values, drug concentrations lethal to 50% of the cells, were calculated from the obtained dose response curves.

[3] = test system: HT (diffuse large B-cell lymphoma, subtype—germinal center B-cell); assay: MTT cytotoxicity assay, HT lymphoma cell line; assay type: cell-based; conditions: Homo sapiens, 72 h, HT cells, three days, read-out: Lymphoma cell lines GI50, HT
Excerpt: as §1, §2

[4] = test system: OCI-LY2 (diffuse large B-cell lymphoma, subtype—germinal center B-cell); assay: MTT cytotoxicity assay, OCI-LY2 lymphoma cell line; assay type: cell-based; conditions: 72 h, OCI-LY2 cells, three days, read-out: Lymphoma cell lines GI50, OCI-LY2
Excerpt: as §1, §2

SMILES	IC50 [1]	GI50 [2]	GI50 [3]	GI50 [4]
CC(C)c1[nH]nc2c(NCc3ccc(-n4cccn4)cc3)nc(SCC(C)(C)N)nc12 [Compound 4.90, 5-(2-Amino-2-methyl-1-propyl)thio-3-isopropyl-7-[4-(pyrazol-1-yl)benzyl]amino-1(2)H-pyrazolo[4,3-d]pyrimidin]	11 nM			
CC(C)c1n[nH]c2c(NCc3ccc(-c4cnccn4)cc3)nc(SCCO)nc12 [Compound 4.133, 5-(2-Hydroxy-1-ethyl)thio-3-isopropyl-7-[4-(pyrazin-2-yl)benzyl]amino-1(2)H-pyrazolo[4,3-d]pyrimidin]	6 nM			
CC(C)c1n[nH]c2c(NCc3ccc(-c4ccccn4)cc3)nc(SCCNC(N)=O)nc12 [Compound 4.11, 5-(2-Ureido-1-ethyl)thio-3-isopropyl-7-[4-(2-pyridyl)benzyl]amino-1(2)H-pyrazolo[4,3-d]pyrimidine]		136 nM	240 nM	198 nM
CC(C)c1n[nH]c2c(NCc3ccc(-c4ccccn4)cc3)nc(SCCC(N)=O)nc12 [Compound 4.6, 5-(2-Carbamoyl-1-ethyl)thio-3-isopropyl-7-[4-(2-pyridyl)benzyl]amino-1(2)H-pyrazolo[4,3-d]pyrimidine]		81 nM	120 nM	84 nM
CC(C)c1n[nH]c2c(NCc3ccc(-c4ccccn4)cc3)nc(SCC3CNC(=O)O3)nc12 (stereo not shown) [Compound 4.28, 5-[(Oxazolidin-2-on-5-yl)methyl]thio-3-isopropyl-7-[4-(2-pyridyl)benzyl]amino-1(2)H-pyrazolo[4,3-d]pyrimidine]		69 nM	80 nM	53 nM
CC(=O)NCCSc1nc(NCc2ccc(-c3ccccn3)cc2)c2[nH]nc(C(C)C)c2n1 [Compound 4.12, 5-(2-Acetylamino-1-ethyl)thio-3-isopropyl-7-[4-(2-pyridyl)benzyl]amino-1(2)H-pyrazolo[4,3-d]pyrimidine]		42 nM	71 nM	54 nM

Further molecules by falling IC50 [1], results first:

IC50 [1]	SMILES	GI50 [2]	GI50 [3]	GI50 [4]
60 nM	CC(C)c1[nH]nc2c(NCc3ccc(-n4cccn4)cc3)nc(SCCCN(C)C)nc12 [Compound 4.96]			
43 nM	CC(C)c1[nH]nc2c(NCc3ccc(-n4cccn4)cc3)nc(SCCN(C)C)nc12 [Compound 4.95]			
8 nM	CC(C)c1[nH]nc2c(NCc3ccc(-n4cccn4)cc3)nc(SCC(C)(C)O)nc12 [Compound 4.93, 5-(2-Hydroxy-2-methyl-1-propyl)thio-3-isopropyl-7-[4-(pyrazol-1-yl)benzyl]amino-1(2)H-pyrazolo[4,3-d]pyrimidin]			
6 nM	CC(C)c1[nH]nc2c(NCc3ccc(-n4cccn4)cc3)nc(SCC(O)CO)nc12 (stereo not shown) [Compound 4.94, 5-(2,3-Dihydroxy-1-propyl)thio-3-isopropyl-7-[4-(pyrazol-1-yl)benzyl]amino-1(2)H-pyrazolo[4,3-d]pyrimidin]			
5 nM	CC(C)c1n[nH]c2c(NCc3ccc(-c4c[nH]cn4)cc3)nc(SCCO)nc12 [Compound 4.109, 5-(2-Hydroxy-1-ethyl)thio-3-isopropyl-7-[4-(imidazol-4-yl)benzyl]amino-1(2)H-pyrazolo[4,3-d]pyrimidin]			
5 nM	CC(C)c1n[nH]c2c(NCc3ccc(-n4ccnc4)cc3)nc(SCCN)nc12 [Compound 4.57, 5-(2-Amino-1-ethyl)thio-3-isopropyl-7-[4-(imidazol-1-yl)benzyl]amino-1(2)H-pyrazolo[4,3-d]pyrimidin]			
4 nM	CC(C)c1n[nH]c2c(NCc3ccc(-c4cnccn4)cc3)nc(SCCN)nc12 [Compound 4.139, 5-(2-Amino-1-ethyl)thio-3-isopropyl-7-[4-(pyrazin-2-yl)benzyl]amino-1(2)H-pyrazolo[4,3-d]pyrimidin]			
3 nM	CC(C)c1[nH]nc2c(NCc3ccc(-n4cccn4)cc3)nc(SCCO)nc12 [Compound 4.80, 5-(2-Hydroxy-1-ethyl)thio-3-isopropyl-7-[4-(pyrazol-1-yl)benzyl]amino-1(2)H-pyrazolo[4,3-d]pyrimidin]			
